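Growth conditions: 96-well plates. Treatment: test compound, 48 hours, 5 concentrations. Analysis: linear interpolation between bracketing concentrations; unreached endpoints set to highest concentration. GI50 is the concentration that inhibits growth by half. TGI denotes the concentration required for complete inhibition of growth.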
Assays:
Assay in all cases: DTP human tumour cell line panel, 48 h
MOLT-4 leukemia = test system: MOLT-4 leukemia
MDA-MB-231 breast = test system: MDA-MB-231 breast
HL-60(TB) leukemia = test system: HL-60(TB) leukemia
NCI-H522 lung = test system: NCI-H522 lung
PC-3 prostate = test system: PC-3 prostate
RXF 393 renal = test system: RXF 393 renal
RPMI-8226 leukemia = test system: RPMI-8226 leukemia
NCI/ADR-RES ovarian = test system: NCI/ADR-RES ovarian
OVCAR-4 ovarian = test system: OVCAR-4 ovarian
HCT-116 colon = test system: HCT-116 colon
NCI-H23 lung = test system: NCI-H23 lung
NCI-H460 lung = test system: NCI-H460 lung
SK-MEL-2 melanoma = test system: SK-MEL-2 melanoma
UACC-62 melanoma = test system: UACC-62 melanoma
SF-268 CNS = test system: SF-268 CNS
NCI-H226 lung = test system: NCI-H226 lung
TK-10 renal = test system: TK-10 renal
M14 melanoma = test system: M14 melanoma
DU-145 prostate = test system: DU-145 prostate
HS 578T breast = test system: HS 578T breast
MALME-3M melanoma = test system: MALME-3M melanoma
LOX IMVI melanoma = test system: LOX IMVI melanoma
MCF7 breast = test system: MCF7 breast
OVCAR-3 ovarian = test system: OVCAR-3 ovarian
A549 NSCLC = test system: A549 NSCLC
K-562 leukemia = test system: K-562 leukemia
OVCAR-5 ovarian = test system: OVCAR-5 ovarian
MDA-MB-435 = test system: MDA-MB-435
SNB-19 CNS = test system: SNB-19 CNS
HCT-15 colon = test system: HCT-15 colon
HOP-62 NSCLC = test system: HOP-62 NSCLC
COLO 205 colon = test system: COLO 205 colon
KM12 colon = test system: KM12 colon
CCRF-CEM leukemia = test system: CCRF-CEM leukemia
SK-MEL-28 melanoma = test system: SK-MEL-28 melanoma
HOP-92 NSCLC = test system: HOP-92 NSCLC
SR leukemia = test system: SR leukemia
SF-539 CNS = test system: SF-539 CNS
UACC-257 melanoma = test system: UACC-257 melanoma
786-0 renal = test system: 786-0 renal
HCC-2998 colon = test system: HCC-2998 colon
T-47D breast = test system: T-47D breast
SK-MEL-5 melanoma = test system: SK-MEL-5 melanoma
EKVX NSCLC = test system: EKVX NSCLC
U251 CNS = test system: U251 CNS
IGROV1 ovarian = test system: IGROV1 ovarian
BT-549 breast = test system: BT-549 breast
SN12C renal = test system: SN12C renal
CAKI-1 renal = test system: CAKI-1 renal
SNB-75 CNS = test system: SNB-75 CNS
HT29 colon = test system: HT29 colon
OVCAR-8 ovarian = test system: OVCAR-8 ovarian
UO-31 renal = test system: UO-31 renal
SW-620 colon = test system: SW-620 colon
A498 renal = test system: A498 renal
SF-295 CNS = test system: SF-295 CNS
ACHN renal = test system: ACHN renal
SK-OV-3 ovarian = test system: SK-OV-3 ovarian

With CSc1n(Cc2ccc3ccccc3c2)c(C)c[n+]1Cc1ccc2ccccc2c1 the GI50 (MOLT-4 leukemia) was 1110 nM, the TGI (MOLT-4 leukemia) was 3010 nM and the GI50 (MDA-MB-231 breast) was 484 nM. The TGI (MDA-MB-231 breast) was 1740 nM, the GI50 (HL-60(TB) leukemia) was 319 nM and the TGI (HL-60(TB) leukemia) was 1120 nM. The GI50 (NCI-H522 lung) was 311 nM, the TGI (NCI-H522 lung) was 1300 nM and the GI50 (PC-3 prostate) was 563 nM. It also gave a TGI (PC-3 prostate) of 2170 nM, a GI50 (RXF 393 renal) of 938 nM and a TGI (RXF 393 renal) of 2470 nM. The GI50 (RPMI-8226 leukemia) was 287 nM, the TGI (RPMI-8226 leukemia) was 1360 nM and the GI50 (NCI/ADR-RES ovarian) was 12800 nM. For the same molecule, the TGI (NCI/ADR-RES ovarian) was 31300 nM, the GI50 (OVCAR-4 ovarian) was 289 nM and the TGI (OVCAR-4 ovarian) was 1040 nM. For the same molecule, the GI50 (HCT-116 colon) was 615 nM, the TGI (HCT-116 colon) was 1860 nM and the GI50 (NCI-H23 lung) was 385 nM. It also gave a TGI (NCI-H23 lung) of 1640 nM, a GI50 (NCI-H460 lung) of 802 nM and a TGI (NCI-H460 lung) of 2180 nM. It also gave a GI50 (SK-MEL-2 melanoma) of 486 nM, a TGI (SK-MEL-2 melanoma) of 1730 nM and a GI50 (UACC-62 melanoma) of 519 nM. The TGI (UACC-62 melanoma) was 1820 nM, the GI50 (SF-268 CNS) was 690 nM and the TGI (SF-268 CNS) was 2130 nM. For the same molecule, the GI50 (NCI-H226 lung) was 1310 nM, the TGI (NCI-H226 lung) was 3180 nM and the GI50 (TK-10 renal) was 1410 nM. The TGI (TK-10 renal) was 2880 nM, the GI50 (M14 melanoma) was 608 nM and the TGI (M14 melanoma) was 2080 nM. For the same molecule, the GI50 (DU-145 prostate) was 1070 nM, the TGI (DU-145 prostate) was 2390 nM and the GI50 (HS 578T breast) was 1020 nM. For the same molecule, the TGI (HS 578T breast) was 2700 nM, the GI50 (MALME-3M melanoma) was 472 nM and the TGI (MALME-3M melanoma) was 1730 nM. For the same molecule, the GI50 (LOX IMVI melanoma) was 591 nM, the TGI (LOX IMVI melanoma) was 1900 nM and the GI50 (MCF7 breast) was 505 nM. It also gave a TGI (MCF7 breast) of 1880 nM, a GI50 (OVCAR-3 ovarian) of 445 nM and a TGI (OVCAR-3 ovarian) of 1630 nM. It also gave a GI50 (A549 NSCLC) of 1280 nM, a TGI (A549 NSCLC) of 2730 nM and a GI50 (K-562 leukemia) of 414 nM. It also gave a TGI (K-562 leukemia) of 2360 nM, a GI50 (OVCAR-5 ovarian) of 1200 nM and a TGI (OVCAR-5 ovarian) of 2530 nM. It also gave a GI50 (MDA-MB-435) of 436 nM, a TGI (MDA-MB-435) of 1570 nM and a GI50 (SNB-19 CNS) of 510 nM. It also gave a TGI (SNB-19 CNS) of 1720 nM, a GI50 (HCT-15 colon) of 2120 nM and a TGI (HCT-15 colon) of 4750 nM. The GI50 (HOP-62 NSCLC) was 1390 nM, the TGI (HOP-62 NSCLC) was 3010 nM and the GI50 (COLO 205 colon) was 352 nM. For the same molecule, the TGI (COLO 205 colon) was 1340 nM, the GI50 (KM12 colon) was 593 nM and the TGI (KM12 colon) was 1960 nM. The GI50 (CCRF-CEM leukemia) was 571 nM, the TGI (CCRF-CEM leukemia) was 2310 nM and the GI50 (SK-MEL-28 melanoma) was 854 nM. It also gave a TGI (SK-MEL-28 melanoma) of 2190 nM, a GI50 (HOP-92 NSCLC) of 255 nM and a TGI (HOP-92 NSCLC) of 1280 nM. For the same molecule, the GI50 (SR leukemia) was 363 nM, the TGI (SR leukemia) was 2520 nM and the GI50 (SF-539 CNS) was 797 nM. For the same molecule, the TGI (SF-539 CNS) was 2120 nM, the GI50 (UACC-257 melanoma) was 325 nM and the TGI (UACC-257 melanoma) was 1120 nM. For the same molecule, the GI50 (786-0 renal) was 1530 nM, the TGI (786-0 renal) was 2970 nM and the GI50 (HCC-2998 colon) was 535 nM. It also gave a TGI (HCC-2998 colon) of 1820 nM, a GI50 (T-47D breast) of 408 nM and a TGI (T-47D breast) of 2100 nM. The GI50 (SK-MEL-5 melanoma) was 389 nM, the TGI (SK-MEL-5 melanoma) was 1320 nM and the GI50 (EKVX NSCLC) was 1400 nM. For the same molecule, the TGI (EKVX NSCLC) was 3830 nM, the GI50 (U251 CNS) was 422 nM and the TGI (U251 CNS) was 1650 nM. It also gave a GI50 (IGROV1 ovarian) of 490 nM, a TGI (IGROV1 ovarian) of 1800 nM and a GI50 (BT-549 breast) of 569 nM. It also gave a TGI (BT-549 breast) of 1810 nM, a GI50 (SN12C renal) of 523 nM and a TGI (SN12C renal) of 1870 nM. The GI50 (CAKI-1 renal) was 1490 nM, the TGI (CAKI-1 renal) was 2970 nM and the GI50 (SNB-75 CNS) was 342 nM. For the same molecule, the TGI (SNB-75 CNS) was 1490 nM, the GI50 (HT29 colon) was 431 nM and the TGI (HT29 colon) was 1600 nM. The GI50 (OVCAR-8 ovarian) was 417 nM, the TGI (OVCAR-8 ovarian) was 1600 nM and the GI50 (UO-31 renal) was 1600 nM. The TGI (UO-31 renal) was 3840 nM, the GI50 (SW-620 colon) was 852 nM and the TGI (SW-620 colon) was 2260 nM. It also gave a GI50 (A498 renal) of 1130 nM, a TGI (A498 renal) of 2930 nM and a GI50 (SF-295 CNS) of 1340 nM. It also gave a TGI (SF-295 CNS) of 2690 nM, a GI50 (ACHN renal) of 1900 nM and a TGI (ACHN renal) of 3770 nM. It also gave a GI50 (SK-OV-3 ovarian) of 1180 nM and a TGI (SK-OV-3 ovarian) of 2610 nM.
